Data: ChEMBL document CHEMBL5385908, “Screening Ultra-Large Encoded Compound Libraries Leads to Novel Protein-Ligand Interactions and High Selectivity” (J Med Chem, 2024)
Each block holds one compound with its values, some of them ahead of it.

Key:
[1] = target: T1, Proteinase-activated receptor 2 (Homo sapiens, UniProt P55085); assay: Binding affinity to PAR2 (unknown origin) assessed as inhibition constant
T1 sequence (P55085 whole entry): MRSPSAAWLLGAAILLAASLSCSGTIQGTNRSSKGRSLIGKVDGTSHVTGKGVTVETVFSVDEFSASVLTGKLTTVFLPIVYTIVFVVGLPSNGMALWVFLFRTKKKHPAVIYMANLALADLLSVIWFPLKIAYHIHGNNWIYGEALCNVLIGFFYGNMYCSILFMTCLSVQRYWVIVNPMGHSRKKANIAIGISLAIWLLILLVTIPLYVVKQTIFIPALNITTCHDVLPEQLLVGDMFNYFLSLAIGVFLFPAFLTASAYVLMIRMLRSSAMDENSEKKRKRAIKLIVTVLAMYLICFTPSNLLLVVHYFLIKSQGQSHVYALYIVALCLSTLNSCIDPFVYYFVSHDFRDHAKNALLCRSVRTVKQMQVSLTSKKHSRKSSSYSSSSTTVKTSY

[2] = target: T1, Proteinase-activated receptor 2; assay: Antagonist activity at PAR2 (unknown origin)
[3] = target: T2, ATPase family AAA domain-containing protein 2 (Homo sapiens, UniProt Q6PL18); assay: Inhibition of N-terminal Hexahistidine-GST-tagged human ATAD2 bromodomain expressed in Escherichia coli BL21 (DE3) Rosetta cells incubated for 1 hr by FRET analysis
T2 sequence (Q6PL18 whole entry): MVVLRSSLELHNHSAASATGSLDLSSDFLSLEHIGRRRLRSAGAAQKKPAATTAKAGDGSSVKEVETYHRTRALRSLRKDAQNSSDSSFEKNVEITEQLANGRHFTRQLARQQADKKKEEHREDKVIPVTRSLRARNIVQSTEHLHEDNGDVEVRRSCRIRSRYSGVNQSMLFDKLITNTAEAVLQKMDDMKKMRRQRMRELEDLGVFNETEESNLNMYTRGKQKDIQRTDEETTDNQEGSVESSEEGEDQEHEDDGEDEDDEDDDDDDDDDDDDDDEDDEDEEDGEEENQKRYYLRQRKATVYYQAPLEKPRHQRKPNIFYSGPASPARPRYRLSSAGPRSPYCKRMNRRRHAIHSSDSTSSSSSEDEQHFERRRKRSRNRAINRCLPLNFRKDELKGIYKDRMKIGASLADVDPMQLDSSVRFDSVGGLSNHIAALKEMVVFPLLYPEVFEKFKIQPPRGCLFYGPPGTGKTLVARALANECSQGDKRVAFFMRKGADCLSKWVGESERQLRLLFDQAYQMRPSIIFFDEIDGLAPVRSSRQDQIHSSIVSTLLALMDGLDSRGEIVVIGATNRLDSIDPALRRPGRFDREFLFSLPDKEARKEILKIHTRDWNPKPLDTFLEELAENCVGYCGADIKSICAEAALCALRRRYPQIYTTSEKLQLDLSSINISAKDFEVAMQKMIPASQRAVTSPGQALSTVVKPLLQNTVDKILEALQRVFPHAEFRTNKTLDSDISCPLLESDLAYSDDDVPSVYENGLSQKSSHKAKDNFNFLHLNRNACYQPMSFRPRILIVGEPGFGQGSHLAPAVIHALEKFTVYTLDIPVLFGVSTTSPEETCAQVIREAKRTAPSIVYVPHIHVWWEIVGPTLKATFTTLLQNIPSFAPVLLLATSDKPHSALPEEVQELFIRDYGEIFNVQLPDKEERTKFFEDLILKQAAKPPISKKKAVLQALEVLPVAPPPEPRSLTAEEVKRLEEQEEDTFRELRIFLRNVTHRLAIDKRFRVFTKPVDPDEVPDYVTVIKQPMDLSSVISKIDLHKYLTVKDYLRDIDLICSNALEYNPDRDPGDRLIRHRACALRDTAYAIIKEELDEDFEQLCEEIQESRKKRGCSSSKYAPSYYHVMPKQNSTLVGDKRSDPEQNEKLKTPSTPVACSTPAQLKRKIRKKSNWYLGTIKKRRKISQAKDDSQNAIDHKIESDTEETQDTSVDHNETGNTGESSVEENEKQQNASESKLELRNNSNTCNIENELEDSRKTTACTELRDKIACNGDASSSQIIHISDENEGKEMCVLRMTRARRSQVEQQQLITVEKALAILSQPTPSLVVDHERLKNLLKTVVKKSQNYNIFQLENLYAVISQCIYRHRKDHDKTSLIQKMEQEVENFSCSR

[4] = target: T3, Receptor-type tyrosine-protein kinase FLT3 (Homo sapiens, UniProt P36888); assay: Inhibition of wild type FLT3 (unknown origin)
T3 sequence (P36888 whole entry): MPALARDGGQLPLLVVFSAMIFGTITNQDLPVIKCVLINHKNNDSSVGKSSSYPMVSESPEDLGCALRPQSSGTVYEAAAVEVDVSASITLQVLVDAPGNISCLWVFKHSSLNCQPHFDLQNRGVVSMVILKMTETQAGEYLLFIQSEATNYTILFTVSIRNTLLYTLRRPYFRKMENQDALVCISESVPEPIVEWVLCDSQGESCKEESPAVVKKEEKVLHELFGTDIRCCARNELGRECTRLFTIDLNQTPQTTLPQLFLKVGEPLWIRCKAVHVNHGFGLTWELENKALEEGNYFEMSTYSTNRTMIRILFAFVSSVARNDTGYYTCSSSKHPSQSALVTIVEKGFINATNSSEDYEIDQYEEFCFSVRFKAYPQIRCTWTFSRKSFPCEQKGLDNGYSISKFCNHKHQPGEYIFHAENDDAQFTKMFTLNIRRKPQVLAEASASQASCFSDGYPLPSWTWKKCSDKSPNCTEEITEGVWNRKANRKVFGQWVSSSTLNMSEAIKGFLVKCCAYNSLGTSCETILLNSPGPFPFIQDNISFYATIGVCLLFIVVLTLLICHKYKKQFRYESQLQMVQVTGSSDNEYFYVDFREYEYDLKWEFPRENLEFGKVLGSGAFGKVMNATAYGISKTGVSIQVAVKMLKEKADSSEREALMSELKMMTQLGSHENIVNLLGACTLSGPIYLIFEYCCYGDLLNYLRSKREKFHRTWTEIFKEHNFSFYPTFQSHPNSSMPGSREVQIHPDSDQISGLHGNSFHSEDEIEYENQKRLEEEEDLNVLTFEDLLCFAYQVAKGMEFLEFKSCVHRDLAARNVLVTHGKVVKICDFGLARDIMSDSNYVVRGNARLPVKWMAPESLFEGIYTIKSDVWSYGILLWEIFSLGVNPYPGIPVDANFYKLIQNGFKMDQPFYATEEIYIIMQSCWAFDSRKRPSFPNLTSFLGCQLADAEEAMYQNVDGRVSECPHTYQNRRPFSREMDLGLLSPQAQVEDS

[5] = target: T4, Tyrosine-protein kinase receptor UFO (Homo sapiens, UniProt P30530); assay: Inhibition of AXL (unknown origin) by FRET assay
T4 sequence (P30530 whole entry): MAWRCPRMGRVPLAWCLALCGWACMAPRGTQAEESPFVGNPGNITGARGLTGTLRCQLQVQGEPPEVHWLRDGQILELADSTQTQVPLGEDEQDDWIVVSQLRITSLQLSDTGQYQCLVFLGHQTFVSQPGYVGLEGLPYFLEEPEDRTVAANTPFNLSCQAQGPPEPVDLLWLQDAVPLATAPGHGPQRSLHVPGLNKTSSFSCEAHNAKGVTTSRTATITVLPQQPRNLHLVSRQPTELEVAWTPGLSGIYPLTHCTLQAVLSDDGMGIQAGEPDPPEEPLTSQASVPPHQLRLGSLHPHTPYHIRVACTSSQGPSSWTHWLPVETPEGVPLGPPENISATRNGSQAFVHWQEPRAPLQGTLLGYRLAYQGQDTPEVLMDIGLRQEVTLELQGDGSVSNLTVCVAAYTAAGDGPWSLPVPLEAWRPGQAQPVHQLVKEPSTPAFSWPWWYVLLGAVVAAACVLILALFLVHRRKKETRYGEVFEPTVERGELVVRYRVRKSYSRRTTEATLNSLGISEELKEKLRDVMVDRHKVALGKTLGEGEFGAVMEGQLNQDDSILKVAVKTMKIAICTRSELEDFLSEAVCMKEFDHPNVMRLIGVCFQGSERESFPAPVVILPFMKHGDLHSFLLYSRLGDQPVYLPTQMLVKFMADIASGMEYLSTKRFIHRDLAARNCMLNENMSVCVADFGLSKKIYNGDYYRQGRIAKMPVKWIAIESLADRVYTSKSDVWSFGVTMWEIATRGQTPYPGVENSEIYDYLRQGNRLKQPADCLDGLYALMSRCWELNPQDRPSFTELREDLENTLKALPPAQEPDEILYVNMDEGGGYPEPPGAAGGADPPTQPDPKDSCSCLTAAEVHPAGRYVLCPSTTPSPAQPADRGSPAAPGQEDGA

[6] = target: T5, Tyrosine-protein kinase Mer (Homo sapiens, UniProt Q12866); assay: Inhibition of N-terminal His6-tagged human MerTk
T5 sequence (Q12866 whole entry): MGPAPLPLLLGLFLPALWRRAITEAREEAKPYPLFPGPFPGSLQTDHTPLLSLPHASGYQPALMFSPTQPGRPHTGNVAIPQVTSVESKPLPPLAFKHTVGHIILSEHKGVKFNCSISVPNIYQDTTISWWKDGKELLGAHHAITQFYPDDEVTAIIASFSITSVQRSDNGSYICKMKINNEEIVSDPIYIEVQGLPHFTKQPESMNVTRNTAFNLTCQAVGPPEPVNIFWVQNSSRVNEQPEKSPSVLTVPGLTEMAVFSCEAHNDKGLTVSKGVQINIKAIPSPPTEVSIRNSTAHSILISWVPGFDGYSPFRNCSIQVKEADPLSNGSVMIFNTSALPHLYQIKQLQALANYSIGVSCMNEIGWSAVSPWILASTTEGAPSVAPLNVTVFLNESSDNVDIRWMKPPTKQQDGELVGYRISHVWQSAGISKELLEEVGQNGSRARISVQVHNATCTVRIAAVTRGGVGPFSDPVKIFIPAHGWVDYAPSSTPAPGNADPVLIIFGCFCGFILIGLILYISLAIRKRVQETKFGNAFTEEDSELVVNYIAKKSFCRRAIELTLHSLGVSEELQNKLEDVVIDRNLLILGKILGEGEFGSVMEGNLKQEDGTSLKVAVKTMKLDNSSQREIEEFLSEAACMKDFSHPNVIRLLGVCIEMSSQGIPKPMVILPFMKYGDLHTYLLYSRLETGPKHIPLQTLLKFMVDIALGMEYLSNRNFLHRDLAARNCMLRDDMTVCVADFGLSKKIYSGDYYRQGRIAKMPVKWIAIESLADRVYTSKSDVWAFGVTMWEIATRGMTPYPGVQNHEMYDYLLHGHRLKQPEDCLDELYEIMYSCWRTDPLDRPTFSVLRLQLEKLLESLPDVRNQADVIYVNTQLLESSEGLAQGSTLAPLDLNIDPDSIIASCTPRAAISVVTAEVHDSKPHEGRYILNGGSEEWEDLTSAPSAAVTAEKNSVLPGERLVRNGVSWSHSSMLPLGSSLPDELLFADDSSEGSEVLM

Protein phosphatase 1D = target: T6, Protein phosphatase 1D (Homo sapiens, UniProt O15297); assay: Inhibition of N-terminal FLAG-His8-tagged human Wip1 (2 to 420 residues) expressed in bac-to-bac baculovirus expression system infected Sf9 cells
T6 sequence (O15297 whole entry): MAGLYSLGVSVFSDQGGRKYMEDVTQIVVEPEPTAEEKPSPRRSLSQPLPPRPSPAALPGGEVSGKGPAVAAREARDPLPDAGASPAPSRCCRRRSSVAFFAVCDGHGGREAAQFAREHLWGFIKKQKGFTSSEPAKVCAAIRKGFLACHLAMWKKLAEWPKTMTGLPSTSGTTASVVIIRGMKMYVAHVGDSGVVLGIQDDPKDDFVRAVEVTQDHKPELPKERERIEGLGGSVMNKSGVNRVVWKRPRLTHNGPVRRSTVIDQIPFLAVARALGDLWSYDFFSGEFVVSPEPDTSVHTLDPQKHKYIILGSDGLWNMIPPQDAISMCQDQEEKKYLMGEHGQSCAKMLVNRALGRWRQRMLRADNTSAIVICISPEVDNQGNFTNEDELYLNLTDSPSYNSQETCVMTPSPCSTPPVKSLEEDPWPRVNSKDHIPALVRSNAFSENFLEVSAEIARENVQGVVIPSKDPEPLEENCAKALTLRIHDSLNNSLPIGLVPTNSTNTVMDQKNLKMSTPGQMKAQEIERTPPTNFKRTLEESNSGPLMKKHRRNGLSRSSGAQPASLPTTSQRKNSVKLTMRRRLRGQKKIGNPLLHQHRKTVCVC

[7] = target: T7, Protein-arginine deiminase type-4 (Homo sapiens, UniProt Q9UM07); assay: Inhibition of N-terminal GST-tagged PAD4 (unknown origin) expressed in Escherichia coli incubated for 1 hr by spectrophotometric method
T7 sequence (Q9UM07 whole entry): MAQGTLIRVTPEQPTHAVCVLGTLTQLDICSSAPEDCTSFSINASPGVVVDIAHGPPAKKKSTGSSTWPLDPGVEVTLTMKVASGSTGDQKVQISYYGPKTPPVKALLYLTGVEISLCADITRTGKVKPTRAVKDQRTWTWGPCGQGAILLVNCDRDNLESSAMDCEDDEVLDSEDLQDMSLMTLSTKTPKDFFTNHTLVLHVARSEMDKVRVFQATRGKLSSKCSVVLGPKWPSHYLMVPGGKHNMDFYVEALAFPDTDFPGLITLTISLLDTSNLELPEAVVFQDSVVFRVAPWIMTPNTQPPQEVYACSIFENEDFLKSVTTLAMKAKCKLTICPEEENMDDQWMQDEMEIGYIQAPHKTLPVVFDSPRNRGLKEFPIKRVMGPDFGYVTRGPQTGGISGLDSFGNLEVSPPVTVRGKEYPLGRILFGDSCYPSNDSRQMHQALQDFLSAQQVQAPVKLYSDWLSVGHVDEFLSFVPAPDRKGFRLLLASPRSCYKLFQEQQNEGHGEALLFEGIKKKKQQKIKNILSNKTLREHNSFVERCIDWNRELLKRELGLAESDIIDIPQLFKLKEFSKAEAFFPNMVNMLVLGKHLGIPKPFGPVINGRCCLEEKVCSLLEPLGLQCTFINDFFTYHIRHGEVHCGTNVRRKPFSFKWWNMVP

[8] = target: T7, Protein-arginine deiminase type-4; assay: Inhibition of N-terminal GST-tagged PAD4 (unknown origin) expressed in Escherichia coli BL21 (DE3) measured after 1 hr by colorimetric assay

Ki [1]: 670 nM
SMILES: NCCCC[C@H](NC(=O)CNC(=O)Nc1ccc2c(c1)c(CN1CCCC1)cn2Cc1c(Cl)cccc1Cl)C(=O)N[C@@H](Cc1ccccc1)C(=O)NC(c1ccccc1)c1ccccc1

IC50 [2]: 23 nM
SMILES: C[C@@H](C1CCCCC1)n1c(-c2cc3c(cc2Br)OCO3)nc2cc(C(=O)Nc3ccc(C#N)cc3)ccc21

IC50 [3]: 22 nM
SMILES: COc1cc(Cl)c(C(=O)N[C@@H](CN[C@H]2CC[C@@H](N)CC2)Cc2ccc(C#N)cc2)cc1-c1ccc(CN[C@H](C)c2ccc(C)cc2)o1

IC50 [3]: 22 nM
SMILES: CNC(=O)[C@@H](Cc1ccc([N+](=O)[O-])cc1)NC(=O)c1cc(-c2ccc(CN[C@H](C)c3ccc(C)cc3)o2)ccc1Cl

IC50 [2]: 90 nM
SMILES: C[C@@H](c1ccccc1)n1c(-c2cc3c(cc2Br)OCO3)nc2cc(C(=O)Nc3ccccc3)ccc21

IC50 [4]: > 100000 nM
IC50 [5]: 16 nM
IC50 [6]: 5 nM
SMILES: CNC(=O)C[C@@H](NC(=O)[C@@H](Cc1ccccc1)NC(=O)c1c(C)noc1-c1snnc1C)c1ccc(C(F)(F)F)cc1

IC50 (Protein phosphatase 1D): 13 nM
SMILES: COCCNC(=O)[C@H](CC1CCCCC1)NC(=O)c1ccc(CNc2cccc(Cl)c2)s1

IC50 [7]: 3200 nM
SMILES: Cn1c(-c2cc3cc(C(=O)N4CCCC(N)C4)ccc3n2N)cc2ccccc21 (stereo not given)

IC50 [7]: 200 nM
IC50 [8]: 200 nM
SMILES: COc1cc(C(=O)N2CCC[C@@H](N)C2)cc2cc(-c3cc4cccnc4n3C)n(N)c12

IC50 [4]: 15800 nM
IC50 [5]: 400 nM
IC50 [6]: 5 nM
SMILES: CN(Cc1ccc2nccn2c1)c1ccc(-c2ccc(-c3ccccc3Cl)cc2)o1
